US20260306640A1, “TECHNOLOGIES TARGETING CELL STATES” (Auron Therapeutics, Inc., priority 2023, published 2026)

Key:
Assay type in all cases: cell-based
[1] = biological target: T1, KAT2A (Homo sapiens, UniProt Q92830); assay: KAT2A degradation, Western Blot (Jess), MOLM-13 cells; set-up: degrader, Western blot; settings: MOLM-13 cells, KAT2A, 24 h, Western Blot, vs DMSO; read-out: KAT2A MOLM-13 DC50
Description: MOLM-13 cells or NCI-H1048 cells were used for Western Blot analysis of KAT2A degradation. KAT2B degradation can be measured in a similar manner with NCI-H1048 cells.
MOLM-13 cells were maintained at 37° C. in 5% CO2 and 90% humidity in RPMI 1640 supplemented with 20% fetal bovine serum (FBS) and 1× penicillin/streptomycin. Cells were plated in full media at 1-2 million cells/2 mL in a 6-well tissue culture treated plate with or without compounds for 24 h at 37° C. in 5% CO2.
MOLM-13 cells or NCI-H1048 cells were washed with PBS, then lysed with RIPA buffer containing 1×protease and phosphatase inhibitors (SantaCruz Biotechnologies Cat #sc-24948A). Protein was isolated by centrifugation at 12,000×g for 10 minutes at 4° C. and supernatant was collected. Protein was quantified via Bradford assay. Samples were diluted to 4 μg lysate in 16 μL RIPA buffer and then 4 μL of Jess Sample Buffer. Samples were heated at 95° C. for 5 minutes. Samples were loaded onto 12-230 kDa Jess™ Separation Module, 8×25 capillary cartridges (SM-W004, Biotechne). Antibodies loaded were: Primary antibody for KAT2A (GCN5L2 (C26A10) Rabbit mAb (3305, CST)) and for KAT2B (PCAF (C14G9)) Rabbit mAb (3378, CST) at 1:1000 and Anti-Rabbit Detection Module for Jess™ (Cat No #DM-001, Biotechne). Signal was detected by chemiluminescence.
DC50 values were determined from percent reduction of protein as compared to the DMSO control.

[2] = biological target: T1, KAT2A; assay: KAT2A degradation, Western Blot (Jess), NCI-H1048 cells; set-up: degrader, Western blot (Jess); settings: NCI-H1048 cells, KAT2A, 24 h, Western Blot, vs DMSO; read-out: KAT2A NCI-H1048 DC50
Summary of the method: (§1)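 DC50 came from protein loss relative to DMSO, measured by Jess capillary immunoblot of RIPA lysates with chemiluminescence read-out. Before lysis, NCI-H1048 cells in 5% FBS HITES medium were exposed to compound for 24 h at 37° C.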

[3] = biological target: KAT2B (Homo sapiens, UniProt Q92831); assay: KAT2B degradation, Western Blot (Jess), NCI-H1048 cells; set-up: degrader, Western blot (Jess); settings: NCI-H1048 cells, KAT2B, 24 h, Western Blot, vs DMSO; read-out: KAT2B NCI-H1048 DC50
Chain of KAT2B (Q92831 whole entry): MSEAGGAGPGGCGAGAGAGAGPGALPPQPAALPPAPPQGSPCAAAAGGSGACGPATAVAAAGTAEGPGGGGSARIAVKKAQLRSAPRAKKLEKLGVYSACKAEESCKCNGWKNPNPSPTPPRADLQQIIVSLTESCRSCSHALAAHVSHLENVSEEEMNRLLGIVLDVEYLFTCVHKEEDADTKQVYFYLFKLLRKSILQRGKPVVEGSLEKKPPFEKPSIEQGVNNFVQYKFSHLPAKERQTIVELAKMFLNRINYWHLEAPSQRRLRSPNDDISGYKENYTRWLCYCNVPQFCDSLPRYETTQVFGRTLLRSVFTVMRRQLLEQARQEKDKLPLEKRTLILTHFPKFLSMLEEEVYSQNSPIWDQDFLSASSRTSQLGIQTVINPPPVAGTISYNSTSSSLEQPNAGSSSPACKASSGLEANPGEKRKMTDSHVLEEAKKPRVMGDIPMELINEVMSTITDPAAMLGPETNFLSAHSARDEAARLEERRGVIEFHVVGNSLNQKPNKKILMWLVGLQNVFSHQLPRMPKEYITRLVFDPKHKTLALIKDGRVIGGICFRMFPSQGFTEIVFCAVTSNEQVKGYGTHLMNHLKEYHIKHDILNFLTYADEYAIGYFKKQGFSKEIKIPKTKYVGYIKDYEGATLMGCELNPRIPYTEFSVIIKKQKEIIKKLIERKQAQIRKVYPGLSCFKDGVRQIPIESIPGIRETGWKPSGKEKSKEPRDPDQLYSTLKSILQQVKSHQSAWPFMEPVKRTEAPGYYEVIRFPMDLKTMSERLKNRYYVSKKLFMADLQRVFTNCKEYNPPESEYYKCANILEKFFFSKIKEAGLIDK
Summary of the method: as §1

T1 sequence (Q92830 whole entry): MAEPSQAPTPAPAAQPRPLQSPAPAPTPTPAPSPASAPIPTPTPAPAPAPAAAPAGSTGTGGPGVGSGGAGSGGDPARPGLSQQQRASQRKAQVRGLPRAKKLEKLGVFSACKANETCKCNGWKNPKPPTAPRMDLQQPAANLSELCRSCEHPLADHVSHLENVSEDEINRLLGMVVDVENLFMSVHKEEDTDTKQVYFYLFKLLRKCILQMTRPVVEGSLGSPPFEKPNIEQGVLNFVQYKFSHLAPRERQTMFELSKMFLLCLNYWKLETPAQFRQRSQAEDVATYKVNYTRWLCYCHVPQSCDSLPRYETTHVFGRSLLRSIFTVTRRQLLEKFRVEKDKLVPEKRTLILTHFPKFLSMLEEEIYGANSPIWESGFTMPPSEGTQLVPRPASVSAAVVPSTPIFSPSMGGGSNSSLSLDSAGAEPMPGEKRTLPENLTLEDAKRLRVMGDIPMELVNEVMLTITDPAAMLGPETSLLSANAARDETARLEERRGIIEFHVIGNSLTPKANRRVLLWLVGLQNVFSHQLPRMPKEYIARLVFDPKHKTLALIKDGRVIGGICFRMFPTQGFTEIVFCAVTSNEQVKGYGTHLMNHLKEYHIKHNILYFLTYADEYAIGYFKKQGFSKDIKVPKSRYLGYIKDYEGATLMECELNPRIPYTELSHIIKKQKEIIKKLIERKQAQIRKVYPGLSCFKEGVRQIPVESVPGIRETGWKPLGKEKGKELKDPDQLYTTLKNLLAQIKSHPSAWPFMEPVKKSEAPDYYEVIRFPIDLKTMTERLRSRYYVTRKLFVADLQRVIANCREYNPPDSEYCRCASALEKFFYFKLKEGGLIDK

| DC50 [1] | DC50 [2] | DC50 [3] | SMILES |
| --- | --- | --- | --- |
| < 1 nM | – | – | CN1C[C@H](Nc2cnn(C)c(=O)c2Br)C[C@H](c2ccc(C(=O)N3CCC(COc4cccc5c4C(=O)N(C4CCC(=O)NC4=O)C5=O)CC3)cc2)C1 (stereo partly drawn) [Compound 45] |
| 1 to 30 nM | – | – | CN1C[C@H](Nc2cnn(C)c(=O)c2Cl)C[C@H](c2ccc(C(=O)N3CCC(c4ccc5c(c4)CN(C4CCC(=O)NC4=O)C5=O)CC3)cc2)C1 (stereo partly drawn) [Compound 77] |
| 1 to 30 nM | – | – | CN1C[C@H](Nc2cnn(C)c(=O)c2Br)C[C@H](c2ccc(C(=O)N3CC4(C3)CN(c3cccc(C5CCC(=O)NC5=O)c3)C4)cc2)C1 (stereo partly drawn) [Compound 148] |
| 1 to 30 nM | – | – | CN1C[C@H](Nc2cnn(C)c(=O)c2Br)C[C@H](c2ccc(C(=O)NCCCCCCCCOc3cccc4c3C(=O)N(C3CCC(=O)NC3=O)C4=O)cc2)C1 (stereo partly drawn) [Compound 42] |
| – | 1 to 30 nM | > 30 nM | Cc1cc(N2CCN(C3CN(C(=O)c4ccc([C@H]5C[C@@H](Nc6cnn(C)c(=O)c6Br)CN(C)C5)cc4)C3)CC2)ccc1C1CCC(=O)NC1=O (stereo partly drawn) [Compound 311] |
| – | < 1 nM | > 30 nM | C[C@H](Nc1nn(C)c(=O)c2ncccc12)[C@H](c1ccc(C(=O)N2CCC3(CC2)CCN(c2ccc(C4CCC(=O)NC4=O)cc2)CC3)cc1)N(C)C (stereo partly drawn) [Compound 430, 3-(4-(9-(4-((1S,2S)-1-(dimethylamino)-2-((7-methyl-8-oxo-7,8-dihydropyrido[2,3-d]pyridazin-5-yl)amino)propyl)benzoyl)-3,9-diazaspiro[5.5]undecan-3-yl)phenyl)-piperidine-2,6-dione] |
| – | < 1 nM | < 1 nM | CN1C[C@H](Nc2cnn(C)c(=O)c2Br)C[C@H](c2ccc(C(=O)N3CCC4(CCC(c5ccc(C6CCC(=O)NC6=O)cn5)CC4)CC3)cc2)C1 (stereo partly drawn) [Compound 321] |
| – | 1 to 30 nM | > 30 nM | Cc1cc(N2CCC3(CCN(C(=O)c4ccc([C@H]5C[C@@H](Nc6cnn(C)c(=O)c6C)CN(C)C5)cc4)CC3)CC2)c(F)cc1C1CCC(=O)NC1=O (stereo partly drawn) [Compound 244] |
| – | < 1 nM | 1 to 30 nM | CN1C[C@H](Nc2cnn(C)c(=O)c2Cl)C[C@H](c2ccc(C(=O)N3CCC4(CC3)CCN(c3ccc(C5CCC(=O)NC5=O)c(F)c3F)CC4)cc2)C1 (stereo partly drawn) [Compound 251] |
| – | < 1 nM | < 1 nM | CCn1ncc(N[C@@H]2C[C@H](c3ccc(C(=O)N4CCC5(CC4)CCN(c4ccc(C6CCC(=O)NC6=O)c(C)c4)CC5)cc3)CN(C)C2)c(Br)c1=O (stereo partly drawn) [Compound 216] |
| – | < 1 nM | < 1 nM | CN1C[C@H](Nc2cnn(C)c(=O)c2Cl)C[C@H](c2ccc(C(=O)N3CCC4(CC3)CCN(c3cc(C5CCC(=O)NC5=O)ccn3)CC4)cc2)C1 (stereo partly drawn) [Compound 234] |
| – | < 1 nM | < 1 nM | Cc1cc(N2CCC3(CCN(C(=O)c4ccc([C@H]5C[C@@H](Nc6cnn(C)c(=O)c6Cl)CN(C)C5)cc4)CC3)CC2)cc(F)c1C1CCC(=O)NC1=O (stereo partly drawn) [Compound 288] |
| – | < 1 nM | < 1 nM | CN1C[C@H](Nc2cnn(C)c(=O)c2Br)C[C@H](c2ccc(C(=O)N3CCC4(CC3)CCN(c3ccc5c(C6CCC(=O)NC6=O)nn(C)c5c3)CC4)cc2)C1 (stereo partly drawn) [Compound 211] |
| – | < 1 nM | 1 to 30 nM | Cc1c(N[C@@H]2C[C@H](c3ccc(C(=O)N4CCC5(CC4)CCN(c4ccc(C6CCC(=O)NC6=O)c(F)c4F)CC5)cc3)CN(C)C2)cnn(C)c1=O (stereo partly drawn) [Compound 252] |
| – | < 1 nM | 1 to 30 nM | CN1C[C@H](Nc2cnn(C)c(=O)c2Br)C[C@H](c2ccc(C(=O)N3CCN(c4cccc5c4oc(=O)n5C4CCC(=O)NC4=O)CC3)cc2)C1 (stereo partly drawn) [Compound 201] |
| – | > 30 nM | > 30 nM | Cc1ncsc1-c1ccc(CNC(=O)[C@@H]2C[C@@H](O)CN2C(=O)[C@@H](NC(=O)CCCCCCCCNC(=O)c2ccc([C@H]3C[C@@H](Nc4cnn(C)c(=O)c4Br)CN(C)C3)cc2)C(C)(C)C)cc1 [Compound 420] |
| – | < 1 nM | 1 to 30 nM | CN1C[C@H](Nc2cnn(C)c(=O)c2Cl)C[C@H](c2ccc(C(=O)N3CCC4(CC3)CCN(c3ccc(NC5CCC(=O)NC5=O)c(F)c3)CC4)cc2)C1 (stereo partly drawn) [Compound 372] |
| – | < 1 nM | < 1 nM | Cc1c(N[C@@H]2C[C@H](c3ccc(C(=O)N4CCC5(CC4)CCN(c4ccc(C6CCC(=O)NC6=O)c(F)c4)CC5)cc3)CN(C)C2)cnn(C)c1=O (stereo partly drawn) [Compound 316] |

| DC50 [1] | DC50 [2] | DC50 [3] | SMILES |
| --- | --- | --- | --- |
| – | > 30 nM | > 30 nM | Cc1c(N[C@@H]2C[C@H](c3ccc(C(=O)N4CCC5(CC4)CCN(c4ccc(C6CCC(=O)NC6=O)c(C(F)(F)F)c4)CC5)cc3)CN(C)C2)cnn(C)c1=O (stereo partly drawn) [Compound 224] |
| – | < 1 nM | < 1 nM | Cc1cc(C2CCC(=O)NC2=O)cnc1N1CCC2(CCN(C(=O)c3ccc([C@H]4C[C@@H](Nc5cnn(C)c(=O)c5Br)CN(C)C4)cc3)CC2)CC1 (stereo partly drawn) [Compound 274] |
| – | < 1 nM | 1 to 30 nM | CN1C[C@H](Nc2cnn(C)c(=O)c2Br)C[C@H](c2ccc(COc3ccc4c(=O)n(C5CCC(=O)NC5=O)ccc4c3)cc2)C1 (stereo partly drawn) [Compound 433, 3-(6-((4-((3R,5R)-5-((5-bromo-1-methyl-6-oxo-1,6-dihydropyridazin-4-yl)amino)-1-methylpiperidin-3-yl)benzyl)oxy)-1-oxoisoquinolin-2(1H)-yl)piperidine-2,6-dione] |
| – | 1 to 30 nM | > 30 nM | Cc1ncsc1-c1ccc(CNC(=O)[C@@H]2C[C@@H](O)CN2C(=O)[C@@H](NC(=O)CN2CCC(N3CCN(C(=O)c4ccc([C@H]5C[C@@H](Nc6cnn(C)c(=O)c6Br)CN(C)C5)cc4)CC3)CC2)C(C)(C)C)cc1 [Compound 409] |
| – | 1 to 30 nM | > 30 nM | Cc1cc(N2CC3(CCN(C(=O)c4ccc([C@H]5C[C@@H](Nc6cnn(C)c(=O)c6Cl)CN(C)C5)cc4)CC3)C2)ccc1C1CCC(=O)NC1=O (stereo partly drawn) [Compound 290] |
| – | < 1 nM | < 1 nM | CN1C[C@H](Nc2cnn(C)c(=O)c2Cl)C[C@H](c2ccc(CN3CCC(c4ccc5c(C6CCC(=O)NC6=O)cncc5c4)C(F)(F)C3)cc2)C1 (stereo partly drawn) [Compound 389] |
| – | < 1 nM | < 1 nM | Cc1cc(N2CCC3(CCN(C(=O)c4ccc([C@H]5C[C@@H](Nc6cnn(C)c(=O)c6Br)CN(C)C5)cc4)CC3)CC2)cnc1C1CCC(=O)NC1=O (stereo partly drawn) [Compound 246] |
| – | < 1 nM | 1 to 30 nM | CN1C[C@H](Nc2cnn(C)c(=O)c2Cl)C[C@H](c2ccc(C(=O)N3CCC4(CC3)CCN(c3ccc(C(=O)NC5CCC(=O)NC5=O)c(F)c3)CC4)cc2)C1 (stereo partly drawn) [Compound 405] |
| – | < 1 nM | > 30 nM | Cc1c(N[C@@H]2C[C@H](c3ccc(CN4CCC(c5cccc(C6CCC(=O)NC6=O)c5)C(F)(F)C4)cc3)CN(C)C2)cnn(C)c1=O (stereo partly drawn) [Compound 387] |
| – | < 1 nM | 1 to 30 nM | Cc1c(N[C@@H]2C[C@H](c3ccc(C(=O)N4CCC5(CC4)CCN(c4ccc(C6CCC(=O)NC6=O)nc4)CC5)cc3)CN(C)C2)cnn(C)c1=O (stereo partly drawn) [Compound 241] |
| – | < 1 nM | 1 to 30 nM | C[C@H](Nc1nn(C)c(=O)c2cccnc12)[C@H](c1ccc(C(=O)N2CCC3(CC2)CCN(c2ccc(C4CCC(=O)NC4=O)cc2)CC3)cc1)N(C)C (stereo partly drawn) [Compound 429, 3-(4-(9-(4-((1S,2S)-1-(dimethylamino)-2-((6-methyl-5-oxo-5,6-dihydropyrido[2,3-d]pyridazin-8-yl)amino)propyl)benzoyl)-3,9-diazaspiro[5.5]undecan-3-yl)phenyl)piperidine-2,6-dione] |
| – | < 1 nM | 1 to 30 nM | CN1C[C@H](Nc2cnn(C)c(=O)c2Br)C[C@H](c2ccc(C(=O)N3CCC4(CC3)CCN(c3ccc(OC5CCC(=O)NC5=O)cn3)CC4)cc2)C1 (stereo partly drawn) [Compound 366] |
| – | < 1 nM | 1 to 30 nM | CN1C[C@H](Nc2cnn(C)c(=O)c2Br)C[C@H](c2ccc(CN3CCN(c4ccc5cc(C6CCC(=O)NC6=O)cnc5c4)CC3)cc2)C1 (stereo partly drawn) [Compound 299] |
| – | 1 to 30 nM | > 30 nM | CN1CC(Nc2cnn(C)c(=O)c2Cl)CC(c2ccc(CN3CCN(c4cccc(OC5CCC(=O)NC5=O)c4)CC3)cc2)C1 (stereo not drawn) [Compound 368] |
| – | < 1 nM | 1 to 30 nM | Cc1cc(C2CCC(=O)NC2=O)c(F)cc1N1CCC2(CCN(C(=O)c3ccc([C@H]4C[C@@H](Nc5cnn(C)c(=O)c5Cl)CN(C)C4)cc3)CC2)CC1 (stereo partly drawn) [Compound 218] |
| – | < 1 nM | < 1 nM | Cc1cc(N2CCC3(CCN(C(=O)c4ccc([C@H]5C[C@@H](Nc6cnn(C)c(=O)c6Cl)CN(C)C5)cc4)CC3)CC2)ccc1OC1CCC(=O)NC1=O (stereo partly drawn) [Compound 365] |
| – | 1 to 30 nM | > 30 nM | CN1C[C@H](Nc2cnn(C)c(=O)c2Cl)C[C@H](c2ccc(C(=O)N3CC(c4cccc(C5CCC(=O)NC5=O)c4)C3)cc2)C1 (stereo partly drawn) [Compound 193] |
